{
  "source": "patent US7022708B2",
  "about": "“4-piperazinyl benzenesulfonyl indoles and uses thereof” (Roche Palo Alto LLC, priority 2002, dated 2006)",
  "data": [
    {"smiles": "O=S(=O)(c1ccc(N2CCNCC2)cc1)n1ccc2cc(F)ccc21", "note": "[Compound 1, 5-Fluoro-1-(4-piperazin-1-yl-benzenesulfonyl)-1H-indole]", "values": [
      {"measurement": "melting point", "value": "77 to 78", "unit": "°C"}
    ]},
    {"smiles": "O=S(=O)(c1ccc(N2CCNCC2)cc1)c1cc2ccccc2[nH]1", "note": "[Compound 39, 2-(4-Piperazin-1-yl-benzenesulfonyl)-1H-indole]", "values": [
      {"measurement": "melting point", "value": "246 to 248.5", "unit": "°C"}
    ]}
  ]
}
